Experimental data: BindingDB's records for patent US9695170 (FibroGen Inc, 2017)

target: Egl nine homolog 1 (Homo sapiens, UniProt Q9GZT9); test: HIF-PH Assay; conditions: pH 7.4
Excerpt: Ketoglutaric acid α-[1-14C]-sodium salt, alpha-ketoglutaric acid sodium salt, and HPLC purified peptide may be obtained from commercial sources, e.g., Perkin-Elmer (Wellesley Mass.), Sigma-Aldrich, and SynPep Corp. (Dublin Calif.), respectively. […] For example, a HIF peptide for use in the HIF-PH assay is [methoxycoumarin]-[…]-amide. HIF-PH, e.g., HIF-PH2 (EGLN1), can be expressed in, e.g., insect Hi5 cells, and partially purified, e.g., through a SP ion exchange chromatography column. […] Reactions are initiated by addition of HIF-PH enzyme.

Chain of Egl nine homolog 1 (Q9GZT9 whole entry): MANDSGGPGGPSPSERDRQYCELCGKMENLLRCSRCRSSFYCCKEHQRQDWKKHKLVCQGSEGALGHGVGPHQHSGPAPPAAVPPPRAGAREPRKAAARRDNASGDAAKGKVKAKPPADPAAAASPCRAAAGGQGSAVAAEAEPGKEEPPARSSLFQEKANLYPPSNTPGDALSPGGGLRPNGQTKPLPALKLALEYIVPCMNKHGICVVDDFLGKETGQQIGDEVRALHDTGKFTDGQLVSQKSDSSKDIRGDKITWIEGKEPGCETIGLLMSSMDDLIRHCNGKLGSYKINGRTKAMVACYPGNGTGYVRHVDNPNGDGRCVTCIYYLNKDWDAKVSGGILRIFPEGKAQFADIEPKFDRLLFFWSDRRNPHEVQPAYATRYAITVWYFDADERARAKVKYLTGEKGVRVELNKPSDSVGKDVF

| SMILES | IC50 [µM] |
| --- | --- |
| COC(=O)NCCNC(=O)c1nc(C#N)c2ccc(=O)n(Cc3ccccc3)c2c1O [US9695170 95] | 134 |
| Cc1ccncc1-c1nc(C(=O)NCCC(=O)O)c(O)c2cc(-c3ccccc3)c(=O)n(Cc3ccccc3)c12 [US9695170 179] | 176 |
| COC(=O)NCCNC(=O)c1ncc2ccc(=O)n(Cc3ccccc3)c2c1O [US9695170 96] | 137 |
